{"source": "paper PMC4096996", "about": "(Structure (London, England : 1993), 2013)", "key": {"AvGluR1 [1]": {"tested_on": "AvGluR1", "settings": "prior studies; ref Janovjak et al., 2011; cited from earlier work"}, "AvGluR1 LBD [2]": {"target": "T1, AvGluR1 LBD (Adineta vaga, UniProt E9P5T5, INS567GT)", "T1 sequence (E9P5T5 with tags, fused parts or gaps INS567GT)": "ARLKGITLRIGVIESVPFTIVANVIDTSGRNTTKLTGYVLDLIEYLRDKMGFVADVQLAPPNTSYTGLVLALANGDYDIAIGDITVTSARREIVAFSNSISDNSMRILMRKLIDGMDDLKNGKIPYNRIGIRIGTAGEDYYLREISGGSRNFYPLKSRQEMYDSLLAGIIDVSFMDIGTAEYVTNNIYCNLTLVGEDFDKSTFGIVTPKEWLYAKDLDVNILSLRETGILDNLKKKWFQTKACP", "assay": "biochemical", "type": "binding", "settings": "for binding affinity: β-carbon branched amino acids"}, "AvGluR1 [3]": {"tested_on": "AvGluR1", "type": "cell-based, Adineta vaga", "settings": "for time constant of onset of desensitization (Figure 2A traces): 2.8 mM alanine; for amplitude of response relative to glutamate: normalized to 60 μM glutamate in the same oocyte"}, "AvGluR1 LBD [4]": {"target": "T1, AvGluR1 LBD", "assay": "Competitive displacement of 100 nM [3H] L-glutamate by 100 μM amino acids", "type": "binding", "settings": "100 μM competing amino acid"}, "AvGluR1 LBD [5]": {"target": "T1, AvGluR1 LBD", "assay": "Saturation binding of [3H] L-glutamate to AvGluR1 LBD apo protein"}, "GluR0 from Synechocystis": {"target": "GluR0 from Synechocystis", "settings": "read-out: Kd for glutamate, ref Chen et al., 1999; cited from earlier work"}, "AvGluR1 LBD [6]": {"target": "T1, AvGluR1 LBD", "assay": "Competitive displacement of [3H] L-glutamate with NaCl substituted by HEPES", "type": "binding"}, "[7]": {"settings": "displacement of 100 nM [3H] L-Glu, NaCl buffer"}, "[8]": {"settings": "Kd, displacement of 100 nM [3H] L-Glu, NaCl buffer"}, "[9]": {"settings": "ligand applied at 300 times the Kd"}, "[10]": {"settings": "Kd in Cl−, competitive displacement of [3H] L-glutamate, NaCl reaction buffer"}}, "note": "Values joined by “and” are separate entries in the source; they are usually repeats but may differ in a detail not shown here. Identical values can stand only once.", "data": [{"compound": "Cc1o[nH]c(=O)c1CC(N)C(=O)O", "note": "(stereo not shown) [AMPA]", "values": [{"measurement": "activation of AvGluR1 (ligand activated ion currents)", "setting": "AvGluR1 [1]", "result": "activation"}, {"measurement": "Kd", "setting": "AvGluR1 LBD [2]; [7]", "result": 130, "unit": "µM"}]}, {"compound": "NC(CCCP(=O)(O)O)C(=O)O", "note": "(stereo not shown) [AP5]", "values": [{"measurement": "Kd", "setting": "AvGluR1 LBD [2]; [7]", "result": 530, "unit": "µM"}]}, {"compound": "N[C@H](CCC(=O)O)C(=O)O", "note": "[D-Glu]", "values": [{"measurement": "Kd", "setting": "AvGluR1 LBD [2]; [7]", "result": 130, "unit": "µM"}]}, {"compound": "O=[N+]([O-])c1cc2nc(O)c(O)nc2cc1[N+](=O)[O-]", "note": "[DNQX]", "values": [{"measurement": "Kd", "setting": "AvGluR1 LBD [2]; [7]", "result": 250, "unit": "µM"}]}, {"compound": "CN[C@H](CC(=O)O)C(=O)O", "note": "[NMDA]", "values": [{"measurement": "Kd", "setting": "AvGluR1 LBD [2]; [7]", "result": 9900, "unit": "µM"}]}, {"compound": "C[C@H](C[C@H](N)C(=O)O)C(=O)O", "note": "[SYM2081, 2S,4R-4-methyl glutamate]", "values": [{"measurement": "fold lower affinity for AvGluR1", "setting": "AvGluR1 LBD [2]; comparator not given", "result": 250, "unit": "fold"}, {"measurement": "Kd", "setting": "AvGluR1 LBD [2]; [7]", "result": 49.5, "unit": "µM"}]}, {"compound": "Cc1cn(C[C@H](N)C(=O)O)c(=O)n(Cc2ccsc2C(=O)O)c1=O", "note": "[UBP-310]", "values": [{"measurement": "Kd", "setting": "AvGluR1 LBD [2]; [7]", "result": 160, "unit": "µM"}]}, {"compound": "C[C@H](N)C(=O)O", "note": "[alanine]", "values": [{"measurement": "time constant of onset of desensitization (Figure 2A traces)", "setting": "AvGluR1 [3]; 60 μM glutamate", "result": 1.0, "unit": "s"}]}, {"compound": "NC(=O)C[C@H](N)C(=O)O", "note": "[asparagine]", "values": [{"measurement": "Kd", "setting": "AvGluR1 LBD [2]; [8]", "result": 81, "unit": "µM"}]}, {"compound": "N[C@@H](CC(=O)O)C(=O)O", "note": "[aspartate]", "values": [{"measurement": "effect on binding of 100 nM [3H] L-glutamate", "setting": "AvGluR1 LBD [4]", "result": "abolished"}, {"measurement": "activation of AvGluR1 (ligand activated ion currents)", "setting": "AvGluR1 [1]", "result": "activation"}]}, {"compound": "N[C@@H](CS)C(=O)O", "note": "[cysteine]", "values": [{"measurement": "amplitude of response relative to glutamate", "setting": "AvGluR1 [3]; [9]", "result": "86 ± 8", "unit": "%"}, {"measurement": "Kd", "setting": "AvGluR1 LBD [2]; [8]", "result": 46, "unit": "µM"}]}, {"compound": "N[C@@H](CCC(=O)O)C(=O)O", "note": "[glutamate, L-glutamate]", "values": [{"measurement": "10-90% rise time", "setting": "AvGluR1 [3]; 60 μM glutamate", "result": "240 ± 67", "unit": "ms"}, {"measurement": "time constant of desensitization (single exponential)", "setting": "AvGluR1 [3]; 60 μM glutamate", "result": "626 ± 255", "unit": "ms"}, {"measurement": "time constant of onset of desensitization (Figure 2A traces)", "setting": "AvGluR1 [3]; 60 μM glutamate", "result": 1.25, "unit": "s"}, {"measurement": "inward current amplitude", "setting": "AvGluR1 [3]; 60 μM glutamate, mean ± SD, n = 9", "result": "5.1 ± 1.4", "unit": "μA"}, {"measurement": "time constant of recovery from desensitization", "setting": "AvGluR1 [3]; 60 μM glutamate, twin pulse protocol", "result": "26 s and 25.7 s"}, {"measurement": "time constant of onset of desensitization", "setting": "AvGluR1 [3]; 100 μM glutamate, wild type AvGluR1 control response (Figure 7D)", "result": 460, "unit": "ms"}, {"measurement": "extent of desensitization", "setting": "AvGluR1 [3]; [9]", "result": "complete desensitization"}, {"measurement": "Kd", "setting": "AvGluR1 LBD [5]", "result": "0.203 ± 0.018", "unit": "µM"}, {"measurement": "Kd", "setting": "GluR0 from Synechocystis", "result": 0.193, "unit": "µM"}, {"measurement": "effect on binding of 100 nM [3H] L-glutamate", "setting": "AvGluR1 LBD [4]", "result": "abolished"}, {"measurement": "Kd", "setting": "AvGluR1 LBD [6]", "result": "0.3 ± 0.04", "unit": "µM"}, {"measurement": "activation of AvGluR1 (ligand activated ion currents)", "setting": "AvGluR1 [1]", "result": "activation"}, {"measurement": "Kd", "setting": "AvGluR1 LBD [2]; [10]", "result": "0.27 ± 0.02", "unit": "µM"}, {"measurement": "Kd", "setting": "AvGluR1 LBD [2]; Kd, sequence of Kd values, Figure 1C and Table S1", "result": 0.203, "unit": "µM"}]}, {"compound": "NC(=O)CC[C@H](N)C(=O)O", "note": "[glutamine]", "values": [{"measurement": "Kd", "setting": "AvGluR1 LBD [2]; [8]", "result": 37, "unit": "µM"}]}, {"compound": "CC[C@H](C)[C@H](N)C(=O)O", "note": "[isoleucine]", "values": [{"measurement": "binding affinity", "setting": "AvGluR1 LBD [2]", "result": "low affinity"}]}, {"compound": "C=C(C)[C@H]1CN[C@H](C(=O)O)[C@H]1CC(=O)O", "note": "[kainate]", "values": [{"measurement": "activation of AvGluR1 (ligand activated ion currents)", "setting": "AvGluR1 [1]", "result": "activation"}, {"measurement": "Kd", "setting": "AvGluR1 LBD [2]; [7]", "result": 2700, "unit": "µM"}]}, {"compound": "CSCC[C@H](N)C(=O)O", "note": "[methionine]", "values": [{"measurement": "amplitude of response relative to glutamate", "setting": "AvGluR1 [3]; [9]", "result": "64 ± 7", "unit": "%"}, {"measurement": "Kd", "setting": "AvGluR1 LBD [6]", "result": "270 ± 52", "unit": "µM"}, {"measurement": "Kd", "setting": "AvGluR1 LBD [2]; [10]", "result": "15.1 ± 2.5", "unit": "µM"}, {"measurement": "Kd", "setting": "AvGluR1 LBD [2]; [8]", "result": 15, "unit": "µM"}]}, {"compound": "N[C@@H](Cc1ccccc1)C(=O)O", "note": "[phenylalanine]", "values": [{"measurement": "amplitude of response relative to glutamate", "setting": "AvGluR1 [3]; [9]", "result": "33 ± 6", "unit": "%"}]}, {"compound": "N[C@@H](Cn1oc(=O)[nH]c1=O)C(=O)O", "note": "[quisqualate]", "values": [{"measurement": "Kd", "setting": "AvGluR1 LBD [2]; [8]", "result": 39, "unit": "µM"}]}, {"compound": "N[C@@H](CO)C(=O)O", "note": "[serine]", "values": [{"measurement": "activation of AvGluR1 (ligand activated ion currents)", "setting": "AvGluR1 [1]", "result": "activation"}]}, {"compound": "C[C@@H](O)[C@H](N)C(=O)O", "note": "[threonine]", "values": [{"measurement": "binding affinity", "setting": "AvGluR1 LBD [2]", "result": "low affinity"}]}, {"compound": "CC(C)[C@H](N)C(=O)O", "note": "[valine]", "values": [{"measurement": "binding affinity", "setting": "AvGluR1 LBD [2]", "result": "low affinity"}]}, {"compound": "concanavalin A", "values": [{"measurement": "effect on AvGluR1 desensitization", "setting": "AvGluR1 [3]; 0.5 mg/ml for 4 minutes", "result": "strongly attenuated"}]}]}
